According to ChEMBL document CHEMBL4371008, “Monoacylglycerol Acyltransferase 2 (MGAT2) Inhibitors for the Treatment of Metabolic Diseases and Nonalcoholic Steatohepatitis (NASH)” (J Med Chem, 2018):
Values belong to the compound of their own block, whether it stands above or below them.

Tests used:
[1] = test system: Mus musculus; test: Inhibition of corn oil-induced plasma triacylglycerol excursion in C57BL/6J mouse at 30 mg/kg administered via oral gavage 30 mins prior to corn oil challenge measured after 6 hrs by oral lipid tolerance test relative to control; assay type: functional
[2] = test system: Mus musculus; test: Inhibition of plasma triacylglycerol excursion in mouse at 30 mg/kg relative to control; assay type: functional
[3] = test system: Mus musculus; test: Inhibition of plasma triacylglycerol excursion in mouse at 10 mg/kg relative to control; assay type: functional
[4] = target: T1, Diacylglycerol O-acyltransferase 2 (Homo sapiens, UniProt Q96PD7); test: Inhibition of recombinant human DGAT2
T1 sequence (Q96PD7 whole entry): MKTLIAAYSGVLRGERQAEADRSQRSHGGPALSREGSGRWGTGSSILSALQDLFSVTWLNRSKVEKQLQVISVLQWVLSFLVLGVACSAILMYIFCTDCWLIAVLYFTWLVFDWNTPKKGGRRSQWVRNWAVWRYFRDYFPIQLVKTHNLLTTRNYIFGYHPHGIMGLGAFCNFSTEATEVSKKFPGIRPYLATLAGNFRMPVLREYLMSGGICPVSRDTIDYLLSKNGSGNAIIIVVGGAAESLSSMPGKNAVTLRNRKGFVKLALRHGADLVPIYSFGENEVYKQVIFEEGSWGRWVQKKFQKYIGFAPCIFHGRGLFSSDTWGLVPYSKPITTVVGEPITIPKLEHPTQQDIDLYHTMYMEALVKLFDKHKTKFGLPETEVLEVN

[5] = species on record: Homo sapiens; test: Selectivity ratio of IC50 for human MGAT3 to IC50 for human MGAT2
[6] = test system: Mus musculus; test: Decrease in insulin level in high sucrose, very low fat diet fed mouse model of fatty liver at 30 mg/kg relative to control; assay type: functional; design: scale not given: the % may be the effect or the level left
[7] = test system: Mus musculus; test: Decrease in insulin level in high sucrose, very low fat diet fed mouse model of fatty liver at 100 mg/kg relative to control; assay type: functional; design: scale not given: the % may be the effect or the level left
[8] = Ratio of plasma concentration in corn oil-treated C57BL/6J mouse at 30 mg/kg, ip to IC50 for mouse MGAT2; assay type: ADME, organism-based; details: in vivo
[9] = test system: Mus musculus; test: Anorectic effect in fasting high fat diet fed C57BL/6J mouse assessed as reduction in food intake at 30 mg/kg, po for 37 days followed by high fat diet feeding for 2 hrs relative to control; assay type: functional; design: scale not given: the % may be the effect or the level left
[10] = test system: Mus musculus; test: Inhibition of corn oil-induced plasma chylomicron triacylglycerol excursion in C57BL/6J mouse at 30 mg/kg, ip treated 16 hrs prior to liquid meal challenge measured up to 4 hrs by oral meal tolerance test relative to control; assay type: functional
[11] = Oral bioavailability in rat; assay type: ADME, organism-based; details: in vivo
[12] = Oral bioavailability in mouse; assay type: ADME, organism-based; details: in vivo

SMILES: O=C(CCNCC1COc2ccccc2O1)N1CCc2nc(SC3CCC3)n(-c3ccccc3)c(=O)c2C1 (stereo not drawn)
inhibition in vivo at 30 mg/kg [1]: 42%

SMILES: CC(C)(C)C1CCN(Cc2ccc([C@H](NS(C)(=O)=O)C(F)(F)F)cc2)CC1
inhibition in vivo at 30 mg/kg [2]: 100% | inhibition in vivo at 10 mg/kg [3]: 69%

SMILES: O=C(CNCCCCCOc1ccc(C(F)(F)F)cc1)N1CCc2nc(SC3CCC3)n(-c3ccccc3)c(=O)c2C1
inhibition in vivo at 30 mg/kg [1]: 42%

SMILES: CCC1(C)NC(=O)c2cc(S(=O)(=O)Nc3ccc(F)cc3F)cc(Cl)c2NC1=O (stereo not drawn)
bioavailability [11]: 74% | bioavailability [12]: 69%

Further lines, with some results ahead:

IC50 [4]: > 30 µM | Ratio IC50 [5]: 300
SMILES: CC(C)(C)c1cc(C(C)(C)C)nc(N2CCn3c(nnc3-c3ccc(OC(F)(F)F)cc3)C2)n1
Activity [6]: 57% | Activity [7]: 51%

Ratio [8]: 1000
SMILES: Cn1nc(C(F)(F)F)cc1-c1cnc(N2CCc3cc(S(=O)(=O)Nc4c(F)cc(Cl)cc4F)cc(N4CCCC4=O)c32)nc1 [TP-020]
Activity [9]: 59% | inhibition in vivo at 30 mg/kg [10]: 58%
